Data on 19 compounds can be found in BindingDB's records for doi:10.1111/j.1747-0285.2010.00957.x (Pfizer, 2010).

Assay [1] has as its target T1, Phosphopantetheine adenylyltransferase (Escherichia coli (strain K12), UniProt P0A6I6). Description: High-Throughput Screening Assay (Forward Direction Assay). The protocol:
(§1) PPAT screening assay (forward-direction assay) were performed in clear 384 well plates containing in each well either 1-uL DMSO, 1 uL of variable concentrations of test compounds solvated in DMSO or 1 uL of a 100-uM solution of a dipeptide inhibitor of PPAT in DMSO which serves as the fully inhibit control.

The target of assay [2] is Phosphopantetheine adenylyltransferase (Enterococcus faecalis (strain ATCC 700802 / V583), UniProt Q831P9). The description is as above. The protocol:
as §1

The target of assay [3] is T1, Phosphopantetheine adenylyltransferase. Description: Reverse PPAT Assay. The protocol:
The reverse assay was performed in polyproplene 96-well plates containing in each well either 1 uL DMSO, 1 µL of variable concentrations of test compounds solvated in DMSO or 1 µL of a 100-uM solution of a dipeptide inhibitor of PPAT in DMSO which serves as control.

Chain of Phosphopantetheine adenylyltransferase (Enterococcus faecalis (strain ATCC 700802 / V583), UniProt Q831P9) (Q831P9 whole entry): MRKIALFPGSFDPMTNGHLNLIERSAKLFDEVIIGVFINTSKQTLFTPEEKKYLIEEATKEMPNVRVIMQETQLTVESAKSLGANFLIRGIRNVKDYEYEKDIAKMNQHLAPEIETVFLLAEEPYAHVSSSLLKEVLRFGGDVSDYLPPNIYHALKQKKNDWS
T1 sequence (P0A6I6 whole entry): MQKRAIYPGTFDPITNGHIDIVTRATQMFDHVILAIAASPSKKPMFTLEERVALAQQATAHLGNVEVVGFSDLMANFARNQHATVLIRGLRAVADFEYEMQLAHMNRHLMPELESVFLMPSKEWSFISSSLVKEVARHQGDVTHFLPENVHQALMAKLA

Take `Cc1c(C(=O)O)[nH]n2c(=O)c3ccc(Cl)cc3nc12` [3-substituted pyrazoloquinolone, 24]: the results for the IC50 in assay [1] and in assay [2] were 106 µM and above 167 µM, respectively.
Regarding `Cn1c2ccc(Cl)cc2c(=O)n2nc(C(=O)O)cc12` [4-substituted pyrazoloquinolone, 18], the IC50 in assay [1] was found to be 160 µM.
`Cc1ccc2c(=O)n3[nH]c(C(=O)O)cc3nc2c1` [6-substituted pyrazoloquinolone, 19]: the IC50 in assay [1] is 15 µM; in assay [2] it was above 167 µM.
Turning to `O=C(O)c1cc2nc3cc(C(F)(F)F)ccc3c(=O)n2[nH]1` [6-substituted pyrazoloquinolone, 20], the half-inhibitory concentration (IC50) in assay [3] is 200 µM; in assay [1] it was 54 µM; in assay [2], above 167 µM.
Take `Nc1ccc2c(=O)n3[nH]c(C(=O)O)cc3nc2c1` [6-substituted pyrazoloquinolone, 21]: the results for the IC50 in assay [1] and in assay [2] were 121 µM and 100 µM, respectively.
Turning to `O=C(O)c1cc2nc3cc(Br)ccc3c(=O)n2[nH]1` [6-substituted pyrazoloquinolone, 22], the figures for the IC50 in assay [3], in assay [1] and in assay [2] were above 125 µM, 124 µM and above 167 µM, respectively.
With `O=C(O)c1cc2nc3cc(Cl)ccc3c(=O)n2[nH]1` [6-substituted pyrazoloquinolone, 23], the IC50 in assay [3] came out at 93 µM; in assay [1], 49 µM; in assay [2], 212 µM.
Taken in the same sequence, the figures for `O=C(O)c1cc2nc3ccccc3c(=O)n2[nH]1` [7-substituted pyrazoloquinolone, 6] were above 230 µM, 253 µM and above 167 µM.
Consider `Cc1ccc2nc3cc(C(=O)O)[nH]n3c(=O)c2c1` [7-substituted pyrazoloquinolone, 7], for which the IC50 in assay [1] stood at 244 µM.
Take `O=C(O)c1cc2nc3ccc(Cl)cc3c(=O)n2[nH]1` [7-substituted pyrazoloquinolone, 8]: the IC50 is 17 µM in assay [1] and above 75 µM in assay [2].
Taken in the same sequence, the figures for `O=C(O)c1cc2nc3ccc(F)cc3c(=O)n2[nH]1` [7-substituted pyrazoloquinolone, 9] were 103 µM and above 167 µM.
For `O=C(O)c1cc2nc3ccc(Br)cc3c(=O)n2[nH]1` [7-substituted pyrazoloquinolone, 10], the IC50 in assay [3] amounted to 22 µM; in assay [1], 6.2 µM; in assay [2] it was 209 µM.
`O=C(O)c1cc2nc3ccc(I)cc3c(=O)n2[nH]1` [7-substituted pyrazoloquinolone, 11]: the IC50 in assay [3] is 11 µM; in assay [1], 5.1 µM; in assay [2] it was above 137 µM.
On to `CSc1ccc2nc3cc(C(=O)O)[nH]n3c(=O)c2c1` [7-substituted pyrazoloquinolone, 12], for which the IC50 was 8.8 µM in assay [3], 13 µM in assay [1] and above 65 µM in assay [2].
With `C[S+]([O-])c1ccc2nc3cc(C(=O)O)[nH]n3c(=O)c2c1` (centres undefined) [7-substituted pyrazoloquinolone, 13], the IC50 in assay [1] came to 166 µM; in assay [2], 20 µM.
The compound `CS(=O)(=O)c1ccc2nc3cc(C(=O)O)[nH]n3c(=O)c2c1` [7-substituted pyrazoloquinolone, 14] registered an IC50 in assay [1] of 92 µM.
Regarding `CC(C)Sc1ccc2nc3cc(C(=O)O)[nH]n3c(=O)c2c1` [7-substituted pyrazoloquinolone, 15], the IC50 in assay [3] is 5 µM; in assay [1] it was 14 µM; in assay [2], 249 µM.
For the compound `CN(C)c1ccc2nc3cc(C(=O)O)[nH]n3c(=O)c2c1` [7-substituted pyrazoloquinolone, 16], the IC50 in assay [3] is 7.1 µM; in assay [1], 49 µM; in assay [2], 157 µM.
As for `COc1ccc2nc3cc(C(=O)O)[nH]n3c(=O)c2c1` [7-substituted pyrazoloquinolone, 17], the concentration for half-maximal inhibition (IC50) was above 150 µM in assay [1] and above 167 µM in assay [2].
